# Assay results taken from patent US6806359B1, “Hormone receptor compositions and methods” (The Salk Institute for Biological Studies, priority 1986, dated 2004).
# Target: T1, hMR (Homo sapiens, UniProt P08235)
# T1 sequence (P08235 1-984): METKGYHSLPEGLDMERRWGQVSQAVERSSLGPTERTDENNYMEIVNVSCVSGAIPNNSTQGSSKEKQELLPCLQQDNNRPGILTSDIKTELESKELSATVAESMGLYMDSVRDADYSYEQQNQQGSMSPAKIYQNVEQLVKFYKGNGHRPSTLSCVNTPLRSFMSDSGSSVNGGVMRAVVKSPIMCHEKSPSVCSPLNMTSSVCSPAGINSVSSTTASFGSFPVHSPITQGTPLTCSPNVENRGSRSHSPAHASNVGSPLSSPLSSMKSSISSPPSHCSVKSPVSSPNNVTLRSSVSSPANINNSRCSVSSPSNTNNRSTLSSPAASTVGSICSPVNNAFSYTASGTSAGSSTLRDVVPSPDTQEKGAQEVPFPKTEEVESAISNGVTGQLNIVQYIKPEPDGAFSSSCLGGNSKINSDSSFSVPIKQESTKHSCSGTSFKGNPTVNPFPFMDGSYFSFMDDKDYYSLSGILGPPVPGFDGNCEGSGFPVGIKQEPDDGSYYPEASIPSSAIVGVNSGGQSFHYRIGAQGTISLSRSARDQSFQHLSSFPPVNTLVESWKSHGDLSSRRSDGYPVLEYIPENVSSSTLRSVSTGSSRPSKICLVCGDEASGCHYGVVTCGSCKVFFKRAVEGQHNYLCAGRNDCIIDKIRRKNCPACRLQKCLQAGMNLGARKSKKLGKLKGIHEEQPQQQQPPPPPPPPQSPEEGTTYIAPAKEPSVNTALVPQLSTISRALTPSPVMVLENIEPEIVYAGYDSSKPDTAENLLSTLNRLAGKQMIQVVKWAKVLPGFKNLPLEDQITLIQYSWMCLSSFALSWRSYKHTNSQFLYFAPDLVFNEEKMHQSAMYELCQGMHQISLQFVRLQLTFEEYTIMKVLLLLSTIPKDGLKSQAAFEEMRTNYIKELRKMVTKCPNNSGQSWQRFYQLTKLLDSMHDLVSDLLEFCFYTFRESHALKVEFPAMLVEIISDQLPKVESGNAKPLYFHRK
# Assay: [^3H]aldosterone binding and steroid competition in extracts of pRShMR-transfected COS cells
# Design: expressed in transfected cells; host or cells: COS cells transfected with pRShMR (DEAE-dextran)
# Conditions: 1-, 10-, or 100-fold molar excess of unlabeled steroid
# Protocol: Ligand specificity of the hMR protein was determined by preparing cytosol extracts from COS cells transfected with pRShMR. Two days after transfection, cells were harvested, and hormone binding was measured by a dextran-treated charcoal assay. […] This provided a measure of the relative affinity of each of these steroids for hMR.
# Steroid-binding properties of expressed hMR. FIG. 38 Structure of pRShMR, the hMR expression plasmid (41). […] Each point was assayed in triplicate with 100 micrograms of extract protein in a 200-microliter incubation at 0° C. for 2.5 hours. […] The results of two independent trials representative of these competition experiments are shown. Cold competitor was present in 1-, 10-, or 100-fold molar excess. […] Subconfluent COS cells were transfected by the DEAE-dextran method (42) with 10 micrograms of pRShMR per dish. Cells were maintained for 2 days in DMEM (Dulbecco's modification of Eagle's minimum essential medium) with 5 percent charcoal-treated fetal calf serum, then harvested in […] tris-HCl. (pH 7.8), 10 nM NaCl, 1 mM EDTA, 10 mM Na2MoO4, 5 mM dithiothreitol, antipain (5 microgram/ml), leupeptin (5 microgram/ml), and 500 microM phenylmethylsulfonyl fluoride. After centrifugation at 15,000×g for 10 minutes, extracts were adjusted to 100 mM NaCl and 5 percent glycerol before binding. […] After centrifugation at 15,000×g for 2 minutes at 40C, tritium in supernatant was quantified by liquid scintillation spectrophotometry.
smiles,measurement,value
C[C@]12CC[C@@H]3c4ccc(O)cc4CC[C@H]3[C@@H]1CC[C@@H]2O [oestradiol],relative affinity for hMR by competition with 5 nM [^3H]aldosterone (in words),competed very poorly
